Where two headings read alike, the source gives them in different places.
What was measured:
[1] = Plasma protein binding, equilibrium dialysis, monkey plasma; type: in vitro ADME
Experimental: The PPB of ET-26-HCl in mouse, rat, beagle dog, monkey and human plasma was determined according to the equilibrium dialysis method. In brief, 1 ml of control plasma samples in dialysis bag was incubated in 10 ml of PBS containing ET-26-HCl at a final concentration of 2.21 × 10^2, 1.77 × 10^3 and 3.54 × 10^3 […] at 4°C with an equilibrium time of 9 h to reach the mass balance binding condition. A 100 µl aliquots of the PBS buffer and the plasma in the dialysis bag were transferred to 2 ml EP tubes and diluted to 995 µl with PBS and analysed on the LC–MS/MS system. The PPB (fppb) was calculated as follows: fppb=Din−Dout/Din×100% , where Din is the plasma drug concentration in the dialysis bag and Dout is the dialysate drug concentration.

[2] = Pharmacokinetics in beagle dogs after intravenous administration; type: in vivo; conditions: beagle dogs; for λ: i.v.; for Vd / half-life / AUC0-t / Cmax / clearance: both sexes, dog, plasma, iv; for Vd / half-life: beagle
Experimental: (§1) Concentrations of ET-26-HCl and ET-26-acid in biological samples were determined by liquid chromatography–tandem mass spectrometry (LC–MS/MS) after deproteinization with methanol. The bioanalytical method for simultaneous quantification of ET-26-HCl and ET-26-acid in the different matrix was fully validated according to FDA guidelines (electronic supplementary material, figure S1 and tables S1 and S2) in our previous study. Briefly, a 100 µl sample (plasma, tissue homogenate, bile, urine and faeces suspension) were spiked with 20 µl of IS solution and vortexed for 30 s. The mixture was then processed for protein precipitation with 300 µl methanol, followed by centrifugation at 12 000 r.p.m. for 5 min. Supernatant was collected and analysed by LC–MS/MS system.
The LC–MS/MS was performed as described previously. Briefly, ET-26-HCl, ET-26-acid and GBP were separated using a CAPCELL PAK C18 column (50 × 2.00 mm, 5.00 µm) as well as a Security Guard Cartridge (C18, 4 mm × 3.00 mm i.d., Phenomenex). The mobile phase consisting of 0.3% formic acid water (A), and methanol (B) was pumped at a flow rate of 0.6 ml min^−1. The gradient elution was achieved according to the following protocol: 0 min to about 0.50 min, A/B (41/9, v/v); 0.51 min to about 1.5 min, A/B (1/9, v/v); and 1.51 min to about 2.00 min, A/B ([…], v/v). Mass spectrometry was conducted on an API 3000 mass spectrometer (Sciex, Framingham, MA, USA) equipped with an electrospray ionization (ESI) source operating in positive mode. The MS/MS system was in the multiple reaction monitoring (MRM) mode, using the m/z transitions of 275.6/170.9 for ET-26-HCl, 217.7/113.1 for ET-26-acid and 172.5/154.3 for GBP (IS), respectively. The API 3000 mass parameters were set according to the following protocol: curtain gas, 6 psi; collision gas, 8 psi; nebulizer, 4 psi; ion spray voltage, 3000 V and ion source temperature, 450°C. The autosampler was conditioned at 4°C, and the injection volume was 5 µl. The linear ranges of this analytical method for ET-26-HCl and for ET-26-acid from all biological samples are shown in electronic supplementary material, table S3.
Beagle dogs, weighing 9–11 kg, were purchased from Sichuan Industrial of Antibiotics, China National Pharmaceutical Group Corporation (Chengdu, China). A 3 × 3 crossover experimental design with 24 beagles (equal number of male and female dogs) randomly divided into six groups was conducted. Beagle dogs in the six groups received three doses of ET-26-HCl: 1.045 mg kg^−1, 2.090 mg kg^−1 and 4.180 mg kg^−1 as low (L), medium (M) and high (H) dose. Blood samples (2 ml) were collected from the elbow vein in 4 ml heparinized tubes before dosing, and at 1, 3, 5, 10, 20, 30, 120 and 180 min post-dosing. All blood samples were centrifuged at 8000 r.p.m. for 10 min and plasma collected and stored at −80°C until analysis.
All calculations were performed on Microsoft Excel 2016 (Microsoft Co., USA). The Drug and Statistics 3.2.7 (DAS 3.2.7) software package (Mathematical Pharmacology Professional Committee of China, China) was used to acquire the main pharmacokinetic parameters of ET-26-HCl. All data were shown as mean ± standard deviation (s.d.). Statistical significances were calculated by one-way analysis of variance (ANOVA).

[3] = parameters: method as in earlier work; conditions: rat; ref results of the drug effect in the early stage of the cooperation laboratory; cited from earlier work
[4] = Stability in beagle plasma (LC-MS/MS); type: in vitro ADME
Experimental: as §1

[5] = parameters: method as in earlier work; conditions: dog; ref results of the drug effect in the early stage of the cooperation laboratory; cited from earlier work
[6] = Metabolic stability in human liver microsomes; type: in vitro ADME
Experimental: Samples were analysed by LC–MS/MS as mentioned above.2.1 CLint, in vitro=0.693/t1/2/Cprotein, 2.2 CLint, in vivo=CLint, in vitro×Houston×LW/1000 2.3 andCLhep in vivo=HBF × fu ×CLint, in vivo/HBF + fu ×CLint, in vivo. Where Cprotein is microsomal protein concentration (mg ml^−1); Houston is Houston factor (45 mg of microsomal protein g^−1 liver); LW is liver weight (g) (per species); HBF is hepatic blood flow (ml min^−1) (per species); fu (two places) and later is unbound fraction (fu = 1 − %protein binding).

COCCOC(=O)c1cncn1[C@H](C)c1ccccc1.Cl [ET-26-HCl, (R)-2-methoxyethyl1-(1-phenylethyl)-1H-imidazole-5-carboxylate hydrochloride]
fraction unbound at 9 h, 654 ng ml^−1 ([1]; measured concentration 654 ng ml^−1): 0.387
fraction unbound at 9 h ([1]; measured concentration 2.62 × 10^3 ng ml^−1, read-out: protein binding (converted)): 0.375 ± 0.0269
fraction unbound at 9 h ([1]; measured concentration 5.23 × 10^3 ng ml^−1, read-out: protein binding (converted)): 0.357
fraction unbound at 9 h ([1]; overall over the three concentrations, read-out: plasma protein binding rate (converted)): 0.373
λ ([2]; 1.045 mg kg^−1): 0.78 ± 0.06 1 h^−1
λ ([2]; 2.09 mg kg^−1): 0.54 ± 0.06 1 h^−1
λ ([2]; 4.18 mg kg^−1): 0.36 ± 0.06 1 h^−1
Vd ([2]; 1.045 mg/kg, 1.045 mg kg^−1): 2.54 ± 0.29 L/kg
half-life ([2]; 1.045 mg/kg, 1.045 mg kg^−1): 55.2 ± 4.8 min
Vd ([2]; 2.09 mg/kg, 2.09 mg kg^−1): ~4 L/kg
half-life ([2]; 2.09 mg/kg, 2.09 mg kg^−1): ~60 min
Vd ([2]; 4.18 mg/kg, 4.18 mg kg^−1): 4.63 ± 0.67 L/kg
half-life ([2]; 4.18 mg/kg, 4.18 mg kg^−1): 130 ± 30 min
AUC0-t ([2]; 1.045 mg kg^−1): 30100 ng·h/mL
Cmax ([2]; 1.045 mg kg^−1): 1480 ± 140 ng/mL
clearance ([2]; 1.045 mg kg^−1): 32 mL/min/kg
AUC0-t ([2]; 2.09 mg kg^−1): 62700 ng·h/mL
Cmax ([2]; 2.09 mg kg^−1): 2850 ± 220 ng/mL
clearance ([2]; 2.09 mg kg^−1): 30 mL/min/kg
AUC0-t ([2]; 4.18 mg kg^−1): 130000 ng·h/mL
Cmax ([2]; 4.18 mg kg^−1): 6230 ± 240 ng/mL
clearance ([2]; 4.18 mg kg^−1): 25 mL/min/kg
ED50 [3]: 2.1 mg/kg
Measured concentration (Mean ± SD) ([4]; 4◦C for 3 h, nominal 44.92 ng/mL): 48.79 ± 3.275 ng/mL
Measured concentration (Mean ± SD) ([4]; 4◦C for 3 h, nominal 3743 ng/mL): 3977 ± 294.1 ng/mL
Measured concentration (Mean ± SD) ([4]; Freeze and Thaw Cycle (3), nominal 44.92 ng/mL): 47.75 ± 3.427 ng/mL
Measured concentration (Mean ± SD) ([4]; Freeze and Thaw Cycle (3), nominal 3743 ng/mL): 3722 ± 240.3 ng/mL
Measured concentration (Mean ± SD) ([4]; Room temperature 3 h, nominal 44.92 ng/mL): 47.91 ± 4.952 ng/mL
Measured concentration (Mean ± SD) ([4]; Room temperature 3 h, nominal 3743 ng/mL): 3599 ± 136.1 ng/mL
Measured concentration (Mean ± SD) ([4]; –80 ◦C for 30 days, nominal 44.92 ng/mL): 44.67 ± 4.795 ng/mL
Measured concentration (Mean ± SD) ([4]; –80 ◦C for 30 days, nominal 3743 ng/mL): 3989 ± 229.1 ng/mL
ED50 [5]: 1.045 mg/kg
CLint, in vitro ([6]; human liver microsomes): 50.0 ml min g^−1 protein
metabolic stability (in words) ([6]; human liver microsomes): relatively stable
CLint, in vitro ([6]; human liver microsomes, Cprotein 0.33 mg ml^−1): 50.0 ± 1.9 ml min^−1 g^−1 protein
extrapolated CLhep in vivo ([6]; human, from liver microsomes): 1077 ± 11.8 mL/min
extrapolated CLint, in vivo ([6]; human, from liver microsomes): 3823 ± 146.4 mL/min
half-life ([6]; pH 7.4, human liver microsomes, Cprotein 0.33 mg ml^−1): 42 ± 1.7 min

Source: paper PMC7062083, “Metabolite identification, tissue distribution, excretion and preclinical pharmacokinetic studies of ET-26-HCl, a new analogue of etomidate” (Royal Society Open Science, 2020)
